The text below walks through data of PubChem BioAssay (NCI).

Several values for one entry are separate records, joined by “and”; a condition that tells them apart may be missing. Equal entries are not always repeated.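 96-well plates; 48 h exposure; 5 concentrations. Endpoints by linear interpolation between flanking doses. Not reached: highest tested concentration assigned. GI50 = concentration required for 50% inhibition of growth. At the TGI there is no net growth.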

Test systems include UACC-62 melanoma; BT-549 breast; T-47D breast; HCT-15 colon; 786-0 renal; U251 CNS; MOLT-4 leukemia; HCT-116 colon; OVCAR-3 ovarian; A549 NSCLC.
What all share (assay): NCI-60 cell line screen, 48 h

Regarding `Nc1c2ccccc2nc2ccccc12` (tested in a mixture with another compound), the GI50 in the experiment with UACC-62 melanoma was 1.62 µM; in the experiment on BT-549 breast, 4.42 µM; with T-47D breast it was 1.87 µM; in the experiment on HCT-15 colon, 2.03 µM; in the experiment with 786-0 renal, 2.45 µM; in the experiment on U251 CNS it was 2.68 µM. The GI50 with MOLT-4 leukemia was 2.32 µM; with HCT-116 colon, 0.849 µM; in the experiment with OVCAR-3 ovarian, 2.29 µM. The TGI with UACC-62 melanoma was determined as 3.74 µM; in the experiment with BT-549 breast, 17.6 µM; in the experiment with T-47D breast, 5.98 µM; with HCT-15 colon, 10.4 µM; in the experiment on 786-0 renal, 9.4 µM; with U251 CNS it was 10.9 µM. For the same molecule, the TGI in the experiment with MOLT-4 leukemia stood at 13.1 µM; with HCT-116 colon, 8.48 µM; in the experiment on OVCAR-3 ovarian, 6.15 µM.
Regarding `Nc1ccccc1C#Cc1ccccc1C#Cc1cnccn1`, the GI50 in the experiment with UACC-62 melanoma was 14.6 µM; in the experiment with BT-549 breast, 13.7 µM; with HCT-15 colon, 16.6 µM; in the experiment on 786-0 renal it was 15.3 µM; in the experiment on A549 NSCLC it was 44.3 µM; in the experiment on U251 CNS it was 17.7 µM. The GI50 was 40.8 µM in the experiment with MOLT-4 leukemia, 17 µM with HCT-116 colon and 9.79 µM in the experiment on OVCAR-3 ovarian. The TGI in the experiment with UACC-62 melanoma was 28 µM; with BT-549 breast, 28.7 µM; in the experiment on HCT-15 colon, 34.6 µM; in the experiment with 786-0 renal, 28.7 µM; with A549 NSCLC it was more than 100 µM; in the experiment with U251 CNS, 32 µM. For the same molecule, the values for the TGI in the experiment on MOLT-4 leukemia, in the experiment on HCT-116 colon and in the experiment with OVCAR-3 ovarian were more than 100 µM, 36.4 µM and 25.8 µM, respectively.
Turning to `Cn1c(=N)n[n+]([O-])c2ccccc21`, the TGI is 2.37 µM and 3.61 µM in the experiment with UACC-62 melanoma; 3.27 µM and 3.46 µM with BT-549 breast; 21.5 µM and 43.2 µM in the experiment with T-47D breast; 10.8 µM with HCT-15 colon; 16 µM and 24.8 µM with 786-0 renal; 23.1 µM and 29.8 µM in the experiment on A549 NSCLC. The TGI in the experiment with U251 CNS is 25.3 µM and 24.1 µM; with MOLT-4 leukemia it was 5.57 µM and 5.16 µM; in the experiment on HCT-116 colon, more than 100 µM. The GI50 in the experiment with T-47D breast was 4.34 µM and 9.12 µM; in the experiment on HCT-15 colon, 4.72 µM.
On to `N#CSc1ccc(S(N)(=O)=O)cc1`, for which the TGI in the experiment on UACC-62 melanoma is more than 100 µM; in the experiment with BT-549 breast, more than 100 µM; in the experiment with T-47D breast, more than 100 µM; with HCT-15 colon, more than 100 µM; in the experiment on 786-0 renal it was 65.2 µM; in the experiment on A549 NSCLC, more than 100 µM. Further, the TGI in the experiment with U251 CNS was 38.1 µM; with MOLT-4 leukemia, 29.6 µM; in the experiment on HCT-116 colon, more than 100 µM; in the experiment with OVCAR-3 ovarian, more than 100 µM.
For `CC#CC(=O)N1CC[C@@H](n2c(=O)n(-c3ccc(Oc4ccccc4)cc3)c3c(N)ncnc32)C1`, the GI50 in the experiment with UACC-62 melanoma was 14.8 µM; in the experiment with BT-549 breast, 14.5 µM; in the experiment on T-47D breast, 12.2 µM; in the experiment on HCT-15 colon it was 26.3 µM; with 786-0 renal, 21.5 µM; with A549 NSCLC it was 55 µM. Besides, the GI50 in the experiment on U251 CNS is 35.8 µM; in the experiment on MOLT-4 leukemia, 10.2 µM; with HCT-116 colon it was 24.8 µM; in the experiment with OVCAR-3 ovarian it was 25.7 µM. In addition, the TGI in the experiment on UACC-62 melanoma is 42.8 µM; in the experiment with BT-549 breast it was 55 µM; in the experiment on T-47D breast, 62.9 µM; with HCT-15 colon, more than 100 µM; with 786-0 renal, more than 100 µM; in the experiment on A549 NSCLC, more than 100 µM. The TGI in the experiment on U251 CNS was more than 100 µM; in the experiment with MOLT-4 leukemia, 62.1 µM; in the experiment on HCT-116 colon, 98.4 µM; in the experiment with OVCAR-3 ovarian, more than 100 µM.
In the case of `COc1cnc2c(c1)C(=O)c1c-2n(CCCNC(C)C)c(=O)c2cc([N+](=O)[O-])ccc12`, the GI50 is 0.0191 µM in the experiment on UACC-62 melanoma; 0.107 µM with BT-549 breast; 0.0393 µM with T-47D breast; 0.124 µM with HCT-15 colon; 0.0351 µM in the experiment on 786-0 renal; 0.0303 µM in the experiment on U251 CNS. For the same molecule, the GI50 in the experiment on MOLT-4 leukemia is 0.0223 µM; in the experiment on OVCAR-3 ovarian, 0.0824 µM. Further, the TGI is 0.123 µM with UACC-62 melanoma; 0.314 µM in the experiment with BT-549 breast; 1.14 µM in the experiment with T-47D breast; 0.402 µM in the experiment with HCT-15 colon; 0.156 µM in the experiment with 786-0 renal; 0.158 µM with U251 CNS. The TGI was 0.0941 µM in the experiment on MOLT-4 leukemia and 0.247 µM in the experiment with OVCAR-3 ovarian.
As to `Oc1c(I)cc(I)cc1CN(Cc1ccccn1)Cc1ccccn1`, the GI50 in the experiment on UACC-62 melanoma was 0.499 µM; in the experiment with BT-549 breast, 1.12 µM; with T-47D breast it was 1.34 µM; in the experiment with HCT-15 colon, 0.453 µM; in the experiment on 786-0 renal, 0.952 µM; in the experiment with A549 NSCLC it was 0.906 µM. The GI50 was 0.419 µM with U251 CNS, 0.89 µM in the experiment with MOLT-4 leukemia, 0.666 µM with HCT-116 colon and 1.83 µM in the experiment with OVCAR-3 ovarian. Further, the TGI was 5.73 µM with UACC-62 melanoma; 13.8 µM with BT-549 breast; 10.6 µM in the experiment with T-47D breast; more than 40.6 µM with HCT-15 colon; 12 µM in the experiment with 786-0 renal; 13.4 µM in the experiment on A549 NSCLC. Moreover, the TGI with U251 CNS is 11.7 µM; with MOLT-4 leukemia, 10.7 µM; in the experiment with HCT-116 colon, 12.4 µM; with OVCAR-3 ovarian, 15.1 µM.
For the molecule `CCCCCCNCCCNc1c2ccccc2nc2cccc([N+](=O)[O-])c12`, the GI50 in the experiment with UACC-62 melanoma is 0.0181 µM; with BT-549 breast, 0.212 µM; in the experiment with T-47D breast, 0.0503 µM; in the experiment with 786-0 renal, 0.0239 µM; in the experiment with OVCAR-3 ovarian it was 0.0395 µM. Further, the TGI with UACC-62 melanoma was 0.131 µM and 0.0618 µM; in the experiment with BT-549 breast it was 0.271 µM and 0.448 µM; in the experiment with T-47D breast, 0.288 µM and 0.457 µM; with HCT-15 colon, more than 100 µM; in the experiment on 786-0 renal, 0.0416 µM and 0.193 µM; in the experiment with A549 NSCLC it was 0.113 µM and 0.131 µM. In addition, the TGI was 0.0966 µM and 0.116 µM in the experiment on U251 CNS; 0.0854 µM and 0.0641 µM with MOLT-4 leukemia; 1.36 µM with HCT-116 colon; 0.0477 µM and 0.206 µM in the experiment on OVCAR-3 ovarian.
